Laboratory results: US20140099354A1, “BIOPASSIVATING MEMBRANE STABILIZATION BY MEANS OF NITROCARBOXYLIC ACID-CONTAINING PHOSPHOLIPIDS IN PREPARATIONS AND COATINGS” (priority 2011, published 2014)

Experiments:
ovarian tissue strips = test: Cryopreservation of ovarian tissue strips: intact follicles; conditions: liquid nitrogen 14 days, cultured 14 days
Experimental: Ovar ectomy was performed in female sheep; resected tissues were cut into 60 ovarian tissue strips. The ovarian strips were either cultured directly (n=4) or prepared with a usual solution for vitrification (VS group; Vitrification Kit, Sage, USA) or incubated with nitrated PLs (NPL group). For this purpose, the tissue strips were bathed in an equibrilation solution (ART-8025-A) which consisted of MOPS-buffered amino acids and gentamicin sulfate (10 mg/l), and 7.5% (v/v) of each DMSO and ethylene glycol and 12 mg/ml human serum albumin for 30 minutes. Thereafter the strips of the VS group were placed in the vitrification solution (ART-8025-B), which is a MOPS-buffered solution containing amino acids and gentamicin sulfate, that contain 15% (v/v) each DMSO and ethylenglycol, 12 mg/ml human albumin and 0.6 M sucrose. The strips of the NPL group were placed in a solution containing 25% (v/v) nitrated PL SNOPC or PNLPC in a PBS-buffered 1% DMSO solution containing 5% human albumin for 60 minutes. The treated tissue strips were then immersed into liquid nitrogen and kept here for 14 days. Then removal and warming of the tissue pieces was performed in AIM-V medium (Gibco, Invitrogen) in a sterile culture dish, first up to 5° C. within 20 minutes, then heated further in a water bath up to 37° C., within the following 60 minutes. The culture medium was replaced and specimens cultured for 14 days. After this, the tissue pieces were fixed, embedded in paraffin and cut, followed by histological examination. […] The total number of intact follicles in the control group was taken as a reference to the number of follicles in the cryopreserved groups.
The culture medium has been exchanged by every 2nd day; samples for hormone analysis were taken and frozen at that time. Determination of 17 β-estradiol and progesterone were performed with a radio-immuno assay (diagnostic systems laboratories, USA).

sciatic nerve = test: Viability of cryopreserved nerve grafts (Annexin-V staining, FACS); assay type: cell-based, rats; conditions: 100 mmolar solution 1 hour; −30° C. 72 hours
cortical neurons = test: Hypoxia and reperfusion of cortical neurons (viability, LDH); conditions: for results of the hypoxia experiments compared with reference nitrated phospholipids: neurons and cardiac myocytes, 10 to 50 μmol/l
Experimental: To determine whether the membrane-stabilizing properties of nitrated phospholipids can lead to attenuation of effects due to an ischemic event or the re-perfusion damage, cortical neurons and cardiac myocytes were investigated.
Freshly prepared cortex tissue was separated with Papain and tissue suspensions were cultured in culture vessels (Prim ARA; BD Biosciences, USA) with Neurobasal A/B27 medium (Invitrogen) for 10-12 days. Cell suspensions were divided, and replenished with suspensions of the natural phospholipids SOPC and PLPC, as well as the analogue phospholipids with nitration of unsaturated fatty acids (1-stearoyl-2-(9-nitrooleoyl)-sn-PC and 1-palmitoyl-2-(9-nitrolinoleoyl)-sn-PC) at concentrations of 10 to 50 μmol/l in NaCl (0.9%) were added. […] After 4 hours, the cells were washed three times with buffered saline and buffered NaCl solution with the addition of MgCl2 and CaCl2 in an anaerobic atmosphere (85% N2, 5% O2, 10% CO2; at 35° C.) for 10 and 30 minutes. Then, the cells were washed once and grown in culture medium under aerobic conditions for 24 hours. […] Cells were stained with annexin V-FITC and propidium iodide (Molecular probes, USA). The vital and necrotic cells were measured by flow cytometry (FACSCalibur, Becton & Dickinson). The volume of culture medium was determined and an aliquot was taken for determination of the LDH (lactate dehydrogenase) concentration.

[1] = system: Cardiac muscle cells derived from neonatal rat heart; test: Hypoxia of cardiac muscle cells (viability, mitochondrial NAD+); assay type: cell-based; conditions: for mitochondrial NAD+ content: hypoxia, baseline 5
Experimental: Cardiac muscle cells derived from neonatal rat heart (Nitobe J, et al, Reactive oxygene species regulate FLICE inhibitory protein and susceptibility to FAS-mediated apoptosis in cardiac myocytes. Cardiovasc RES 2003, 119-28). The heart muscle cells were cultured in Dulbecco/Eagle medium (DMEM) with 10% FCS added under standard conditions for two days. Incubation with the natural and nitrated phospholipids, as well as the hypoxia experiments were carried out as described above. Incubated cells were grown in culture medium under standard conditions for 24 hours. This is followed by a vitality staining as described above. […] The frozen cells were thawed up to -4° C. and homogenized for subsequent NAD^+ analyses. By means of differential centrifuge, pellets containing mitochondria were separated (Di Lisa, et al, 1993; Am. J. Physiol. 264, […]-[…]). The NAD^+ content was determined by fluoroscopy, and normalized to the protein content (Veloso, D., and […]., 1974;) Anal. Biochem., 449-450).

| Compound | rate of intact follicles relative to the control group (ovarian tissue strips) [%] | proportion of living cells relative to non-frozen control (sciatic nerve) [%] | other results |
| --- | --- | --- | --- |
| 1,2-di-(9-nitrogadleoyl)-sn-3-glycerophosphocholine, 1,2-di-(10-nitrolinoleoyl)-sn-3-glycerophosphocholine, 1-(9-nitrolinoleoyl)-2-(10-nitrogadoleoyl)-sn-3-glycerophosphocholine and 1-(10-nitrogadoleoyl)-2-(9-nitrogadoleoyl)-sn-3-glycerophosphocholine [Example N9] | 90 | 79 | – |
| 1-oleoyl-2-(9-nitropalmitoleoyl)-sn-3-glycerophosphocholine and 1-oleoyl-2-(10-nitropalmitoleoyl)-sn-3-glycerophosphocholine [Example P1] | – | 90 | – |
| 1-erucinyl-2-(9-nitrogadoleoyl)-sn-3-glycerophosphocholine and 1-erucinyl-2-(10-nitrogadoleoyl)-sn-3-glycerophosphocholine [Example P3] | 97 | 90 | – |
| 1,2-Di-(9-hydroxy-10-nitrostearoyl)-sn-3-glycerophosphocholine, 1-(9-hydroxy-10-nitrostearoyl)-2-(10-hydroxy-9-nitrostearoyl)-sn-3-glycerophosphocholine, 1-(10-hydroxy-9-nitrostearoyl)-2-(9-hydroxy-10-nitrostearoyl)-sn-3-glycerophosphocholine and 1,2-di-(10-hydroxy-9-nitrostearoyl)-sn-3-glycerophosphocholine [Example O3] | 91 | – | – |
| 1-Palmitoyl-2-(9-hydroxy-10-nitrostearoyl)-sn-3-glycerophosphocholine and 1-palmitoyl-2-(10-hydroxy-9-nitrostearoyl)-sn-3-glycerophosphocholine [Example O4] | 93 | – | – |
| 1,2-di-(hydroxyl, nitro-8,11,14,17-eicosatetraenoyl)-sn-3-glycerophosphocholine [Example O5] | – | – | results of the hypoxia experiments compared with reference nitrated phospholipids (cortical neurons): slightly worse results |
| 1,2-di-(nitroarachidonoyl)-sn-glycero-3-phosphatidylcholines [Example N4] | 92 | – | – |
| 1-Palmitoyl-2-(10-hydroxy-9-nitro-α-linolenoyl)-sn-3-glycerophosphocholine and 1-palmitoyl-2-(9-hydroxy-10-nitro-α-linolenoyl)-sn-3-glycerophosphocholine [Example O6] | – | 78 | results of the hypoxia experiments compared with reference nitrated phospholipids (cortical neurons): slightly worse results |
| 1,2-di-(dinitroeicosapentaenoyl)-sn-glycero-3-phosphatidylcholines [Example N13] | 91 | – | – |
| 1,2-di-(5-nitroeicosapentaenoyl)-sn-3-glycerophosphocholine, 1,2-di-(6-nitroeicosapentaenoyl)-sn-3-glycerophosphocholine, 1-(5-nitroeicosapentaenoyl)-2-(6-nitroeicosapentaenoyl)-sn-3-glycerophosphocholine and 1-(6-nitroeicosapentaenoyl)-2-(5-nitroeicosapentaenoyl)-sn-3-glycerophosPhocholine [Example N10] | 98 | 82 | – |
| CCCCCCCCCCCCCCCC(=O)OC[C@H](COP(=O)([O-])OCC[N+](C)(C)C)OC(=O)CCCCCCCC(C(O)CCCCCCCC)[N+](=O)[O-] (stereo partly drawn) [Example O2, 1-palmitoyl-2-(9-nitro-10-hydroxy-stearoyl)-sn-3-glycerophosphocholine] | 87 | – | – |
| 1,2-di-(nitroarachidonoyl)-sn-glycero-3-phosphatidylcholines [Example N3] | 94 | – | – |
| 1-Palmitoyl-2-(E-9-nitrooleoyl)-sn-3-glycero-phosphatidylinositol [PNOPI] | – | 82 | – |
| 1,2-di-(nitro-γ-linolenoyl)-sn-glycero-3-phosphatidylcholines [Example N5] | 89 | – | – |
| CC/C=C\C/C=C\C/C=C\C/C=C\C/C=C\C/C=C\CCC(=O)OC[C@H](COP(=O)([O-])OCC[N+](C)(C)C)OC(=O)CCCCCCC/C=C(\CCCCCC)[N+](=O)[O-] [Example P11, 1-DHA-2-(E-10-nitropalmitoleoyl)-sn-3-glycerophosphocholine] | 97 | – | – |
| 1,2-di-(dinitro-α-linolenoyl)-sn-glycero-3-phosphatidylcholines [Example N14] | – | 81 | – |
| CCCCCCCC/C(=C\CCCCCCCC(=O)O[C@H](COC(=O)CCCCC1CCSS1)COP(=O)([O-])OCC[N+](C)(C)C)[N+](=O)[O-] (stereo partly drawn) [Example P9, 1-liponoyl-2-(E-10-nitrooleoyl)-sn-3-glycerophosphocholine] | 90 | – | – |
| CCCCC/C=C\C/C=C\CCCCCCCC(=O)O[C@H](COC(=O)CCCCCCCCCCCCCCC)COP(=O)([O-])OCC[N+](C)(C)C [PLPC, 1-Palmitoyl-2-linoleoyl-sn-glycero-3-PC, reference compound] | – | – | increase in LDH versus normoxemia culture (cortical neurons; 10-minutes ischemia): 380 fold; viability of cortical cells measured after 24 hours (cortical neurons; 10-minutes ischemia): 30%; increase in LDH versus normoxemia culture (cortical neurons; 30-minutes ischemia): 630 fold; viability of cortical cells measured after 24 hours (cortical neurons; 30-minutes ischemia): 0%; loss of viability of heart muscle cells after hypoxia ([1]; (10 minutes)): 16%; loss of viability of heart muscle cells after hypoxia ([1]; (30 minutes)): 42%; mitochondrial NAD+ content ([1]; first printed value): 2.4 nmol/mg protein; mitochondrial NAD+ content ([1]; second printed value): 0.7 nmol/mg protein |
| CC/C=C(\C/C=C\C/C=C\CCCCCCCC(=O)OC[C@H](COP(=O)([O-])OCC[N+](C)(C)C)OC(=O)CCCCCCC/C=C\C/C=C\C/C(=C\CC)[N+](=O)[O-])[N+](=O)[O-] [Example N20, 1,2-di-(E-15-nitro-α-linolenoyl)-sn-3-glycerophosphocholine] | – | 82 | – |
| 1,2-di-(9-nitro-α-linolenoyl)-sn-3-glycerophosphocholine, 1,2-di-(10-nitro-α-linolenoyl)-sn-3-glycerophosphocholine, 1-(9-nitro-α-linolenoyl)-2-(10-nitro-α-linolenoyl)-sn-3-glycerophosphocholine and 1-(10-nitro-α-linolenoyl)-2-(9-nitro-α-linolenoyl)-sn-3-glycerophosphocholine [Example N11] | 95 | – | – |
| CCCCCCCC/C=C\CCCCCCCC(=O)O[C@H](COC(=O)CCCCCCCCCCCCCCC)COP(=O)(O)OC1[C@H](O)[C@H](O)C(O)[C@H](O)[C@H]1O (stereo partly drawn) [POPI, 1-Palmitoyl-2-oleoyl-sn-3-glycero-phosphatidylinositol, reference compound] | – | 20 | – |
| 1-eicosapentaenoyl-2-(5-nitro-EPA)-sn-3-glycerophosphocholine and 1-eicosapentaenoyl-2-(6-nitro-EPA)-sn-3-glycerophosphocholine [Example P4] | 93 | 74 | – |
| CCCCCC/C(=C\CCCCCCCC(=O)OC[C@H](COP(=O)([O-])OCC[N+](C)(C)C)OC(=O)CCCCCCC/C=C(\CCCCCC)[N+](=O)[O-])[N+](=O)[O-] [Example N19, 1,2-di-(E-10-nitropalmitoleoyl)-sn-3-glycerophosphocholine] | – | 84 | – |
| 1,2-di-(dinitrolinoleoyl)-sn-glycero-3-phosphatidylcholines [Example N12] | 88 | – | – |
